The record followed here is patent US9260391B2, “Hypoglycemic dihydropyridones” (The Trustees of Columbia University in the City of New York, priority 2008, dated 2016).

Entries after “also recorded” stand apart in the source; their conditions may differ.

Experiment [1] deals with Lewis rats. Put plainly: Intraperitoneal glucose tolerance test (IPGTT), compounds given i.v. In kind it is in vivo, rat. The following applies: for AUC Blood Glucose IPGTT: 2 mg/kg (2.0 μg/gbw) i.v.; for blood glucose levels around sixty minutes following glucose challenge: i.v. injection at 2 mg/kg body weight; for area under the curve from glucose tolerance tests: each series a separate experiment. The procedure: All animal studies were reviewed and approved by the Institutional Animal Care and Use Committee (IACUC) at Columbia University's Medical School. All experiments were performed in accordance with the IACUC approved procedures. Normal male Lewis rats (100-400 grams) were obtained from Taconic (Taconic Inc., Germantown, N.Y.) and were housed under conditions of controlled humidity (55±5%), temperature (23±1° C.), and lighting (light on: 06.00-18.00 hours) with free access to standard laboratory rat chow and water. Rats were handled daily to minimize nonspecific stress for more than 7 days before the experiments began. In most experiments, it was necessary to measure blood glucose in fasting animals. For these groups, food was removed at the beginning of the light cycle, 6 hours before glucose levels were measured. Diabetes mellitus was induced by intraperitoneal injection of streptozotocin (Sigma Chemical Co., St. Louis, Mo.) (25 to 50 mg/kg) to animals (100 to 150 grams) that had been fasted 4 hours to enhance the effectiveness of STZ treatment.
The STZ solution was prepared fresh by dissolving it in 0.1 M citrate buffer (pH 5.5) and terminally sterile filtered. Control Lewis age and weight matched rats received a 0.5 ml/kg citrate vehicle alone via intraperitoneal injection. Sixty minutes prior to intraperitoneal glucose tolerance testing (IPGTT), anesthesia of male Lewis rats was induced with isoflurane (3-4% in oxygen) and maintained with 1-2% isoflurane in oxygen. Anaesthetized rats were administered TBZ and other indicated compounds at the indicated dose by intravenous (i.v.) injection using the penile vein. TBZ was dissolved in neat sterile dimethylsulfoxide (DMSO) and diluted (always more than 10 fold) in sterile saline. Rats received injections of vehicle alone (10% DMSO in saline) or reserpine (in saline). Animals recovered fully before receiving IPGTT.
Blood samples were collected from a superficial blood vessel in the tails of the rats following 6 hours of fasting between 12:00 noon and 2:00 p.m. The fasting blood glucose (BG) levels of the rats were measured using an Accu-Check blood glucose monitoring system (Roche Diagnostics, Sommerville, N.J.). Intraperitoneal glucose tolerance tests (IPGTT) were performed in 6 hour fasting un-anaesthetized animals. Briefly, after baseline BG measurements, animals received an intraperitoneal (i.p.) injection of 1 gram glucose/kilogram body weight. To minimize stress during the procedure, rats were handled by the same operator during acclimatization and later during weighing and IPGTT. Blood samples (approximately 30 μl) were collected at baseline and then again 15, 30, 60, 90, and 120 minutes following i.p. glucose administration. BG concentrations were measured immediately on these samples and the remainder processed.
Plasma was immediately separated by centrifugation at 3000×g for 15 minutes and then stored at −20° C. until analysis. Insulin and glucagon concentration measurements in rat plasma were performed by ELISA as per the manufacturer's instructions using kits from Linco Research Inc. (St. Charles, Mo.) and Alpco Diagnostics (Salem, N.H.), respectively. To validate the test, saline injections were performed by the same method. […] The area under the IPGTT glucose concentration×time curve (AUCIPGTT) was calculated by the trapezoidal rule. The area under the insulin or glucagon concentration×time curve (AUC INS or AUC GCG) was calculated in a similar manner.
Anaesthetized rats were administered TBZ, THB, butamol, reserpine, emetine, or HG-6 at a dose of approximately 2-3 mg/kg body weight by intravenous (i.v.) injection using the penile vein. TBZ, THB, butamol, reserpine, emetine, and HG-6 were each separately dissolved in neat sterile dimethylsulfoxide (DMSO) and diluted (always more than 10 fold) in sterile saline. Rats received injections of vehicle alone (10% DMSO in saline) or reserpine (in saline). Animals recovered fully before receiving IPGTT. […]

Experiment [2] relates to Lewis rats. Put plainly: IPGTT of analogs HG-1 to HG-11, compounds given orally (FIG. 15). In kind it is in vivo, rat. The following applies: 2 mg/kg orally; FIG. 15. As for the experimental part: FIG. 15 is a bar graph showing the results of testing various analogs HG-1 to HG-11 in IPGTT glucose tolerance tests in rats. Results for TBZ, emetine, and olanzapine are also shown. Lewis rats fasted for 6 hours were administered the compounds orally (30 min, 2 mg/kg) followed by intraperitoneal glucose injection (0 min, […]), and plasma glucose levels were monitored for 120 mins. Results are presented as AUC percentage of the vehicle. Error bars indicate SEM (n=5).
Racemic HG-2 and its diastereoisomer HG-1 were evaluated for their ability to improve glucose tolerance by performing intraperitoneal glucose tolerance tests (IPGTT) in rats. IPGTT testing is described above. See also Murthy, R., et al., Eur. J. Nucl. Med. Mol. Imaging, 2008, 35(4), 790-797.

Setting [3] is: 2 mg/kg body weight i.v., Lewis rats 9-11 weeks old, vs vehicle (DMSO).
Where [4] appears, read: single dose 2-3 mg/kg body weight i.v., FIG. 12.

`COC(=O)[C@H]1[C@H]2C[C@@H]3c4[nH]c5cc(OC)ccc5c4CCN3C[C@H]2C[C@@H](OC(=O)c2cc(OC)c(OC)c(OC)c2)[C@@H]1OC` [reserpine]: in the experiment with Lewis rats [1], the “AUC Blood Glucose IPGTT” value was “smaller area under the curve” and the “blood glucose levels around sixty minutes following glucose challenge” value is recorded as “returned to control or near normal levels”. Further, the “blood glucose excursion during IPGTT” value in the experiment with Lewis rats [1] (setting [3]) is recorded as “reduce the blood glucose excursion”. Also, in the experiment with Lewis rats [1] (reserpine single concentration 25 μg/gbm, data not shown), the “blood glucose and AUC IPGTT relative to untreated controls” value is “persistent hyperglycemia and larger AUC IPGTT”.

For the compound `COc1ccc(C2CC(=O)CC(=O)N2)cc1OC` (centres unmarked) [HG-5], in the experiment on Lewis rats [2], the “hypoglycemic activity in IPGTT compared with TBZ / HG-3” value is given as “loss of the improved activity”.

On to `CC[C@H]1CN2CCc3cc(OC)c(OC)cc3[C@@H]2C[C@@H]1C[C@H]1NCCc2cc(OC)c(OC)cc21` [emetine], for which, in the experiment with Lewis rats [1], the “AUC Blood Glucose IPGTT” value was “smaller area under the curve; also recorded: lower than that for vehicle and butamol treated animals”; the “blood glucose levels around sixty minutes following glucose challenge” value is recorded as “returned to control or near normal levels”. For the same compound, the “blood glucose excursion during IPGTT” value with Lewis rats [1] (setting [3]) is reported as “reduce the blood glucose excursion”. Besides, in the experiment with Lewis rats [1] (setting [4]), the “blood glucose excursion during IPGTT” value was “consistently reduced the blood glucose excursion” and the “area under the curve from glucose tolerance tests” value (“area under the curve” for short) is “consistently suppressed the area under the curve”. In addition, the “area under the curve” value with Lewis rats [1] (single dose 2-3 mg/kg body weight i.v., FIG. 12, listed as emitine) is listed as “depress the area under the curve”.

With `COC1=CC(=O)OC(c2ccc(OC)c(OC)c2)C1` (centres unmarked) [HG-9], the “hypoglycemic activity in IPGTT compared with TBZ / HG-3” value in the experiment with Lewis rats [2] is reported as “loss of the improved activity”.

Turning to `COc1ccc(C2CC(OCC(C)C)=CC(=O)O2)cc1OC` (centres unmarked) [HG-7], in the experiment with Lewis rats [2], the “hypoglycemic activity in IPGTT compared with TBZ / HG-3” value was “loss of the improved activity”.

For the compound `COc1cc2c(cc1OC)C1CC(N)C(CC(C)C)CN1CC2` (centres unmarked) [HG-6, 3-isobutyl-9,10-dimethoxy-2,3,4,6,7,11b-hexahydro-1H-pyrido[2,1-a]isoquinolin-2-amine], in the experiment on Lewis rats [1] (setting [4]), the “blood glucose excursion during IPGTT” value is given as “consistently reduced the blood glucose excursion” and the “area under the curve” value is “consistently suppressed the area under the curve; also recorded: depress the area under the curve”.

`COc1ccc(-c2cc(OCC(C)C)cc(=O)[nH]2)cc1OC` [compound 17]: the “hypoglycemic activity in IPGTT compared with TBZ / HG-3” value in the experiment on Lewis rats [2] is “loss of the improved activity”.

In the case of `CC(C)(C)NCC(O)c1ccc(O)c(CO)c1` (centres unmarked) [butamol], in the experiment with Lewis rats [1], the “AUC Blood Glucose IPGTT” value was “smaller area under the curve” and the “blood glucose levels around sixty minutes following glucose challenge” value was “returned to control or near normal levels”. The “blood glucose excursion during IPGTT” value in the experiment on Lewis rats [1] (setting [3]) is reported as “did not reduce the blood glucose excursion; also recorded: does not reduce the blood glucose excursion”.

Regarding `COc1ccc(C2CC(O)C(CC(C)C)CN2)cc1OC` (centres unmarked) [HG-2], in the experiment on Lewis rats [2], the “hypoglycemic activity in IPGTT compared with TBZ / HG-3” value was “less potent than TBZ”.

`COC1=CC(=O)N2CCc3cc(OC)c(OC)cc3C2C1` (centres unmarked) [HG-10]: the “hypoglycemic activity in IPGTT compared with TBZ / HG-3” value with Lewis rats [2] is reported as “active but less potent”.

In the case of `COc1cc2c(cc1OC)C1CC(OCC(C)C)=CC(=O)N1CC2` (centres unmarked) [HG-8], in the experiment on Lewis rats [2], the “hypoglycemic activity in IPGTT compared with TBZ / HG-3” value is “active but less potent”.

On to `COc1ccc([C@@H]2C[C@H](O)[C@@H](CC(C)C)CN2)cc1OC` [HG-1], for which the “hypoglycemic activity in IPGTT compared with TBZ / HG-3” value with Lewis rats [2] is on record as “less potent than TBZ”.

For `COc1ccc2c(c1OC)CN1CCc3cc4c(cc3C1C2)OCO4` (centres unmarked) [THB, tetrahydroberberine], in the experiment on Lewis rats [1], the “AUC Blood Glucose IPGTT” value is “smaller area under the curve; also recorded: lower than that for vehicle and butamol treated animals”; the “blood glucose levels around sixty minutes following glucose challenge” value is given as “returned to control or near normal levels”. The “blood glucose excursion during IPGTT” value in the experiment on Lewis rats [1] (setting [3]) is recorded as “reduce the blood glucose excursion”.
